Laboratory results as given in patent US8993756B2 (Merck Sharp & Dohme Corp., priority 2011, dated 2015).

Experiments:
[1] = molecular target: JAK3 (Homo sapiens (Human), UniProt P52333); experiment: Jak Biochemical HTRF Assay (JAK3); conditions: recombinant GST-tagged catalytic domain, [ATP] 2.9 μM
[2] = molecular target: JAK2 (Homo sapiens (Human), UniProt O60674); experiment: Jak Biochemical HTRF Assay (JAK2); conditions: recombinant GST-tagged catalytic domain, [ATP] 8.5 μM
Sequence of JAK2 (O60674 849-1124): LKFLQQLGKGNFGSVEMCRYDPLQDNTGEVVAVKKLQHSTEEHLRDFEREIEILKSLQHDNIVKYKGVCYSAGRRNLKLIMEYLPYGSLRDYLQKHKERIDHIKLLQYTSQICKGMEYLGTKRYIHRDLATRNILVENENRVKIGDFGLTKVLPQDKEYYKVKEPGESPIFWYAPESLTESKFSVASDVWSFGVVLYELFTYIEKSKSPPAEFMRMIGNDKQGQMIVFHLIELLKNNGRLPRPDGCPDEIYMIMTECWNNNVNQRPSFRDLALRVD

Sequence of JAK3 (P52333 822-1111): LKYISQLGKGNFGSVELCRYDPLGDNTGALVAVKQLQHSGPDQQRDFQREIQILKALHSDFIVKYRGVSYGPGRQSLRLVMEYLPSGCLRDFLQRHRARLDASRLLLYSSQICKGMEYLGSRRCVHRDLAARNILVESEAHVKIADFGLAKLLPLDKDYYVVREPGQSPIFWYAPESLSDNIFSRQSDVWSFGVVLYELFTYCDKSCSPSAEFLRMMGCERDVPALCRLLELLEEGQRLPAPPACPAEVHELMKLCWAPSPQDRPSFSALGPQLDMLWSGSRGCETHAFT

Row | IC50 ([1]; given as range class) | IC50 ([2]; given as range class) | IC50 [1] | IC50 [2] | Structure (SMILES)
1 | 10 to 500 nM | > 500 nM |  |  | CCOC(=O)c1c[nH]c2ncnc(-c3ccc4[nH]nc(C(F)(F)F)c4c3)c12 [Example 1-72, ethyl 4-[3-(trifluoromethyl)-1H-indazol-5-yl]-7H-pyrrolo[2,3-d]pyrimidine-5-carboxylate]
2 | 10 to 500 nM | > 500 nM |  |  | CCOC(=O)c1c[nH]c2ncnc(-c3cccc(NC(=O)/C=C/c4cccc(OC)c4)c3)c12 [Example 5-24, ethyl 4-(3-{[(2E)-3-(3-methoxyphenyl)prop-2-enoyl]amino}phenyl)-7H-pyrrolo[2,3-d]pyrimidine-5-carboxylate]
3 | 10 to 500 nM | > 500 nM |  |  | CCOC(=O)c1c[nH]c2ncnc(-c3cccc4[nH]ncc34)c12 [Example 1-64, ethyl 4-(1H-indazol-4-yl)-7H-pyrrolo[2,3-d]pyrimidine-5-carboxylate]
4 |  |  | 0.15 nM | > 1500 nM | C=C(C)C(=O)Nc1cc(-c2ncnc3[nH]cc(C(=O)OCC)c23)ccc1C [Example 4-10]
5 | 10 to 500 nM | > 500 nM |  |  | CCOC(=O)c1c[nH]c2ncnc(-c3cccc4c3CNC4=O)c12 [Example 1-73, ethyl 4-(1-oxo-2,3-dihydro-1H-isoindol-4-yl)-7H-pyrrolo[2,3-d]pyrimidine-5-carboxylate]
6 | 10 to 500 nM | > 500 nM |  |  | CCOC(=O)c1c[nH]c2ncnc(-c3cccc(NC(=O)/C=C/C(F)(F)F)c3)c12 [Example 5-42, ethyl 4-(3-{[(2E)-4,4,4-trifluorobut-2-enoyl]amino}phenyl)-7H-pyrrolo[2,3-d]pyrimidine-5-carboxylate]
7 |  |  | 9.7 nM | 137 nM | CCOC(=O)c1c[nH]c2ncnc(-c3ccc4cc[nH]c4c3)c12 [Example 1-83, ethyl 4-(1H-indol-6-yl)-7H-pyrrolo[2,3-d]pyrimidine-5-carboxylate]
8 |  |  | 0.013 nM | > 1500 nM | C=C(C)C(=O)Nc1cc(-c2ncnc3[nH]cc(C(=O)OCC)c23)ccc1Cl [Example 4-9, ethyl 4-{4-chloro-3-[(2-methylacryloyl)amino]phenyl}-7H-pyrrolo[2,3-d]pyrimidine-5-carboxylate]
9 | 10 to 500 nM | > 500 nM |  |  | CCOC(=O)c1c[nH]c2ncnc(-c3cccc(NC(=O)/C=C/c4ccc(OC)cc4)c3)c12 [Example 5-29, ethyl 4-(3-{[(2E)-3-(4-methoxyphenyl)prop-2-enoyl]amino}phenyl)-7H-pyrrolo[2,3-d]pyrimidine-5-carboxylate]
10 | 10 to 500 nM | > 500 nM |  |  | CCOC(=O)c1c[nH]c2ncnc(-c3ccc(OC)nc3)c12 [Example 1-93, ethyl 4-(6-methoxypyridin-3-yl)-7H-pyrrolo[2,3-d]pyrimidine-5-carboxylate]
11 |  |  | 6.5 nM | 98 nM | CCOC(=O)c1c[nH]c2ncnc(-c3ccc4[nH]ncc4c3)c12 [Example 1-69, ethyl 4-(1H-indazol-5-yl)-7H-pyrrolo[2,3-d]pyrimidine-5-carboxylate]
12 | 10 to 500 nM | > 500 nM |  |  | CCOC(=O)c1c[nH]c2ncnc(-c3ccc(C(N)=O)cc3)c12 [Example 1-7, ethyl 4-(4-carbamoylphenyl)-7H-pyrrolo[2,3-d]pyrimidine-5-carboxylate]
13 |  |  | 0.22 nM | > 1500 nM | C=C(Cl)C(=O)Nc1cccc(-c2ncnc3[nH]cc(C(=O)OCC)c23)c1 [Example 5-6, ethyl 4-{3-[(2-chloroacryloyl)amino]phenyl}-7H-pyrrolo[2,3-d]pyrimidine-5-carboxylate]
14 | 10 to 500 nM | > 500 nM |  |  | CCOC(=O)c1c[nH]c2ncnc(-c3csc4ccccc34)c12 [Example 1-71, ethyl 4-(1-benzothiophen-3-yl)-7H-pyrrolo[2,3-d]pyrimidine-5-carboxylate]
15 |  |  | 0.085 nM | > 1500 nM | C=C(C)C(=O)Nc1cncc(-c2ncnc3[nH]cc(C(=O)OCC)c23)c1 [Example 4-3, Ethyl 4-{5-[(2-methylacryloyl)amino]pyridin-3-yl}-7H-pyrrolo[2,3-d]pyrimidine-5-carboxylate]
16 | 10 to 500 nM | > 500 nM |  |  | CCOC(=O)c1c[nH]c2ncnc(-c3cccc(NC(=O)/C=C/c4ccco4)c3)c12 [Example 5-32, ethyl 4-(3-{[(2E)-3-furan-2-ylprop-2-enoyl]amino}phenyl)-7H-pyrrolo[2,3-d]pyrimidine-5-carboxylate]
17 | 10 to 500 nM | 10 to 500 nM |  |  | C=CCOC(=O)c1c[nH]c2ncnc(-c3ccc4cn(C)nc4c3)c12 [Example 2-2, Prop-2-en-1-yl 4-(2-methyl-2H-indazol-6-yl)-7H-pyrrolo[2,3-d]pyrimidine-5-carboxylate]
18 | 10 to 500 nM | > 500 nM |  |  | CC/C=C(\C)C(=O)Nc1cccc(-c2ncnc3[nH]cc(C(=O)OCC)c23)c1 [Example 5-25, ethyl 4-(3-{[(2E)-2-methylpent-2-enoyl]amino}phenyl)-7H-pyrrolo[2,3-d]pyrimidine-5-carboxylate]

Row | IC50 ([1]; given as range class) | IC50 ([2]; given as range class) | IC50 [1] | IC50 [2] | Structure (SMILES)
19 | 10 to 500 nM | > 500 nM |  |  | C=C(C)C(=O)Nc1cccc(-c2ncnc3[nH]cc(-c4nccs4)c23)c1 [Example 31, N-(3-(5-(Thiazol-2-yl)-7H-pyrrolo[2,3-d]pyrimidin-4-yl)phenyl)methacrylamide]
20 |  |  | 0.2 nM | > 1500 nM | CCOC(=O)c1c[nH]c2ncnc(-c3cccc(NC(=O)/C=C/CN(C)C)c3)c12 [Example 16, Ethyl-4-(3-{[(2E)-4-(dimethylamino)but-2-enoyl]amino}phenyl)-7H-pyrrolo[2,3-d]-pyrimidine-5-carboxylate]
21 | > 500 nM | > 500 nM |  |  | C=C(C)C(=O)N(C)c1cccc(-c2ncnc3[nH]cc(C4CCOCC4)c23)c1 [Example 24, N-Methyl-N-(3-(5-(tetrahydro-2H-pyran-4-yl)-7H-pyrrolo[2,3-d]pyrimidin-4-yl)phenyl)methacrylamide]
22 |  |  | 2.3 nM | > 1500 nM | C=C(C)C(=O)N1CCc2ccc(-c3ncnc4[nH]cc(C(=O)OCC)c34)cc21 [Example 4-21, ethyl 4-[1-(2-methylacryloyl)-2,3-dihydro-1H-indol-6-yl]-7H-pyrrolo[2,3-d]pyrimidine-5-carboxylate]
23 | 10 to 500 nM | > 500 nM |  |  | CCOC(=O)c1c[nH]c2ncnc(C3=CCOCC3)c12 [Example 1-98, ethyl 4-(3,6-dihydro-2H-pyran-4-yl)-7H-pyrrolo[2,3-d]pyrimidine-5-carboxylate]
24 | 10 to 500 nM | > 500 nM |  |  | CCOC(=O)c1c[nH]c2ncnc(-c3cn[nH]c3)c12 [Example 1-51, ethyl 4-(1H-pyrazol-4-yl)-7H-pyrrolo[2,3-d]pyrimidine-5-carboxylate]
25 |  |  | 3.9 nM | 496 nM | CCOC(=O)c1c[nH]c2ncnc(-c3cccc(NC(=O)/C=C/c4nccs4)c3)c12 [Example 5-39, ethyl 4-(3-{[(2E)-3-(1,3-thiazol-2-yl)prop-2-enoyl]amino}phenyl)-7H-pyrrolo[2,3-d]pyrimidine-5-carboxylate]
26 |  |  | 0.049 nM | > 1500 nM | C=C(C)C(=O)Nc1cc(-c2ncnc3[nH]cc(C(=O)OCC)c23)cc(OC)n1 [Example 4-4, Ethyl 4-{2-methoxy-6-[(2-methylacryloyl)amino]pyridin-4-yl}-7H-pyrrolo[2,3-d]pyrimidine-5-carboxylate]
27 | 10 to 500 nM | > 500 nM |  |  | CCOC(=O)c1c[nH]c2ncnc(-c3ccc(S(C)(=O)=O)cc3)c12 [Example 1-11, ethyl 4-[4-(methylsulfonyl)phenyl]-7H-pyrrolo[2,3-d]pyrimidine-5-carboxylate]
28 | 10 to 500 nM | > 500 nM |  |  | CCOC(=O)c1c[nH]c2ncnc(-c3cnc(OC)nc3)c12 [Example 1-91, ethyl 4-(2-methoxypyrimidin-5-yl)-7H-pyrrolo[2,3-d]pyrimidine-5-carboxylate]
29 | 10 to 500 nM | > 500 nM |  |  | CCOC(=O)c1c[nH]c2ncnc(-c3cccc(NC(=O)/C(C)=C/c4ccccc4)c3)c12 [Example 5-43, ethyl 4-(3-{[(2E)-2-methyl-3-phenylprop-2-enoyl]amino}phenyl)-7H-pyrrolo[2,3-d]pyrimidine-5-carboxylate]
30 |  |  | 0.087 nM | > 1500 nM | C=C(C)C(=O)Nc1cc(-c2ncnc3[nH]cc(C(=O)OCC)c23)ccc1S(C)(=O)=O [Example 4-29, ethyl 4-{3-[(2-methylacryloyl)amino]-4-(methylsulfonyl)phenyl}-7H-pyrrolo[2,3-d]pyrimidine-5-carboxylate]
31 | 10 to 500 nM | > 500 nM |  |  | C=C(C)C(=O)Nc1cccc(-c2ncnc3[nH]cc(-c4c(C)cc(C)cc4C)c23)c1 [Example 20-8, 2-methyl-N-{3-[5-(2,4,6-trimethylphenyl)-7H-pyrrolo[2,3-d]pyrimidin-4-yl]phenyll}prop-2-enamide]
32 |  |  | 5.6 nM | 127 nM | CCOC(=O)c1c[nH]c2ncnc(-c3cccc(O)c3)c12 [Example 1-45, ethyl 4-(3-hydroxyphenyl)-7H-pyrrolo[2,3-d]pyrimidine-5-carboxylate]
33 | 10 to 500 nM | 10 to 500 nM |  |  | CCOC(=O)c1c[nH]c2ncnc(-c3cccs3)c12 [Example 1-56, ethyl 4-thiophen-2-yl-7H-pyrrolo[2,3-d]pyrimidine-5-carboxylate]
34 |  |  | 9 nM | 153 nM | CCCOC(=O)c1c[nH]c2ncnc(-c3ccc4cn(C)nc4c3)c12 [Example 2-1, Propyl 4-(2-methyl-2H-indazol-6-yl)-7H-pyrrolo[2,3-d]pyrimidine-5-carboxylate]
35 |  |  | 0.081 nM | > 1500 nM | C=CC(=O)N1CCc2ccc(-c3ncnc4[nH]cc(C(=O)OCC)c34)cc21 [Example 4-20, ethyl 4-(1-acryloyl-2,3-dihydro-1H-indol-6-yl)-7H-pyrrolo[2,3-d]pyrimidine-5-carboxylate]
36 |  |  | 7.5 nM | > 1500 nM | C=C(C)C(=O)Nc1cccc(-c2ncnc3[nH]cc(-c4cnc[nH]4)c23)c1 [Example 21-2, N-(3-(5-(1H-imidazol-5-yl)-7H-pyrrolo[2,3-d]pyrimidin-4-yl)phenyl)methacrylamide]
